This assay relates to STING (IRF pathway reporter in THP1-Dual™ cells, THP-1 (HAQ)). Nature of the assay: Reporter gene expression assay in THP-1 cells (THP1-Dual, IRF pathway Lucia luciferase, 2′,3′-cGAMP stimulation). It is filed as cell-based, human. The following applies: Homo sapiens, 10 min preincubation, 5 μM 2′,3′-cGAMP, 20 hr, IRF pathway luciferase (QUANTI-Luc), IC50 range class. As for the experimental part: THP1-Dual™ cells (Invivogen) were derived from the human THP-1 monocyte cell line by stable integration of two inducible reporter constructs. As a result, THP1-Dual™ cells allow the simultaneous study of the IRF pathway, by assessing the activity of a secreted luciferase (Lucia) and the NF-κB pathway, by monitoring the activity of secreted SEAP. 5×10^4 THP1-Dual™ cells were seeded in 384-well plates in growth medium and preincubated with novel compounds for 10 minutes followed by stimulation with 5 μM 2′,3′-cGAMP. After 20 hr of stimulation the supernatant was removed and the IRF pathway reporter protein was readily measured in the cell culture supernatant using QUANTI-Luc™ (Invivogen), a luciferase detection reagent on a Spectramax i3X luminometer.
In the tables below, IC50 value ranges for exemplary compounds are given. The IC50 ranges are indicated as “A” for values less than or equal to 1 μM, “B” for values greater than 1 μM and less than or equal to 10 μM, and “C” for values greater than 10 μM.

SMILES strings stand for the structures. pIC50: −log10 of the molar value. Bounds are passed on as bounds.

In the case of `CN(C(=O)CC(NC(=O)Nc1ccc2cc[nH]c2c1)c1ccc2c(c1)N(Cc1ccccc1)CCS2)C1CC1` (stereo not drawn) [Example 32, 3-(3-(1H-indol-6-yl)ureido)-3-(4-benzyl-3,4-dihydro-2H-benzo[b][1,4]thiazin-6-yl)-N-cyclopropyl-N-methylpropanamide], the pIC50 is below 5.00.

In turn, `COCCN(C)C(=O)CC(NC(=O)Nc1ccc2cc[nH]c2c1)c1ccc2c(c1)N(Cc1ccccc1)CCS2` (stereo not drawn) [Example 33, 3-(3-(1H-indol-6-yl)ureido)-3-(4-benzyl-3,4-dihydro-2H-benzo[b][1,4]thiazin-6-yl)-N-(2-methoxyethyl)-N-methylpropanamide] showed a pIC50 of 5.00 to 6.00.

Compound `O=C(CC(NC(=O)Nc1ccc2cc[nH]c2c1)c1ccc2c(c1)N(Cc1ccccc1)CCS2)Nc1cccnc1` (stereo not drawn) [Example 34, 3-(3-(1H-indol-6-yl)ureido)-3-(4-benzyl-3,4-dihydro-2H-benzo[b][1,4]thiazin-6-yl)-N-(pyridin-3-yl)propanamide] gave a pIC50 below 5.00.

As for `O=C(CC(NC(=O)Nc1ccc2cc[nH]c2c1)c1ccc2c(c1)N(Cc1ccccc1)CCS2)NCCO` (stereo not drawn) [Example 35, 3-(3-(1H-indol-6-yl)ureido)-3-(4-benzyl-3,4-dihydro-2H-benzo[b][1,4]thiazin-6-yl)-N-(2-hydroxyethyl)propanamide], the pIC50 was 5.00 to 6.00.

In the case of `C=CCC(NC(=O)Nc1ccc2cc[nH]c2c1)c1ccc2c(c1)N(Cc1c(F)cccc1Cl)CCS2` (stereo not drawn) [Example 36, 1-(1-(4-(2-chloro-6-fluorobenzyl)-3,4-dihydro-2H-benzo[b][1,4]thiazin-6-yl)but-3-en-1-yl)-3-(1H-indol-6-yl)urea], the pIC50 is at least 6.00.

In the case of `C=CCC(NC(=O)Nc1c[nH]c2ccccc12)c1ccc2c(c1)N(Cc1ccccc1)CCS2` (stereo not drawn) [Example 37, 1-(1-(4-benzyl-3,4-dihydro-2H-benzo[b][1,4]thiazin-6-yl)but-3-en-1-yl)-3-(1H-indol-3-yl)urea], the pIC50 was 5.00 to 6.00.

As usually defined, the pIC50 is the IC50 on a negative log10 scale, so that one unit is a factor of ten. Lower therefore signals a large IC50.
